Experiments:
[1] = test system: ADPRT (ADP-ribosylation) in HML; test: HML + neutrophil co-culture exposed to PMA: HML ADP-ribosylation versus HOCl production; format: cell-based, human; settings: 1×10^6 HML with 0 to 4×10^6 neutrophils, PMA 25 ng/ml, 30 min at 37° C.; FIG. 1
Procedure: HOCl measurement.--Mixed cultures of HML+ neutrophils were assayed for the production of HOCl in the extracellular conditioned medium by removal of the cells by centrifugation following the incubation period, and immediately trapping the produced HOCl with taurine (20 mM). Taurine chloramine was then quantified spectrophotometrically by using the conversion of I^- to I2 (E=2.29×10^4 M^-1 cm^-1). Details of this procedure have been described by Weiss et al (J. Clin. Invest. 70:598-607, 1982).
(§1) ADPRT assay.--The procedure was adapted from the permeabilized cell technique of Berger (Methods Cell Biol. 20:325-340, 1988) with modifications as previously described (Pero et al, Carcinogenesis 10:1657-64, 1989). Duplicate samples of 1×10^6 HML in the presence of 0 to 4×10^6 neutrophils were cultured in 1 ml of KRPG buffer for 30 min at 37° C. in the presence of PMA (phorbol-12-myristate-13-acetate, 25 ng/ml). After this co-incubation, the HML+ neutrophil mixtures were harvested by centrifugation, permeabilized, and ADPRT activity determined by radiometric procedure as described in detail elsewhere (Pero et al, Carcinogenesis 10:1657-64, 1989). […]
This Example establishes that human phagocytes (i.e. neutrophils) produce physiologic relevant concentrations of endogenous ADPRT inhibitors. […] The respiratory burst induced by PMA exposure of neutrophils was monitored by HOCl production. […]

[2] = test system: ADPRT (adenosine diphosphate ribosyl transferase) in HML; test: PMA induced ADPRT activity in HML treated with HOCl or chloramine T (permeabilized cell radiometric assay); format: cell-based, human; settings: doses of 80 μM; 30 min at 37° C., then PMA 25 ng/ml for 30 min; versus zero-dose control; FIG. 2
Procedure: as §1
The effect of various dosage levels of chloramine T and HOCl on PMA induced ADPRT activity in HML was investigated utilizing the procedures described above for such tests, measuring the PMA induced ADPRT activity for HML subjected to the various dosages, and comparing the values obtained with measured control values of PMA induced ADPRT activity in HML from the same source but with zero dosages of chloramine T and HOCl.

Row | SMILES | produced concentration sufficient to cause inhibition of HML ADP-ribosylation [1] | inhibition of HML ADPRT activity [2]
1 | OCl [HOCl] | about 80 μM | > 80%
2 | Cc1ccc(S(=O)(=O)[N-]Cl)cc1.[Na+] [N-chloramine, chloramine T] | about 80 μM | > 80%

Source: patent US5925571A, “Method of testing immune competency” (Oxi-Gene, Inc., priority 1997, dated 1999)
